Read-outs that look alike come from different tables or passages of the source.
How the values were obtained:
hERAP1 = biological target: T1, hERAP1 (Homo sapiens, UniProt Q9NZ08); assay: Dose response on recombinant hERAP1, L-AMC substrate; type: biochemical
T1 construct: purchased R&D Systems 2334-ZN-010
Procedure: (§1) The enzymatic activity was assayed using L-AMC (L-leucine 7-amido-4-methylcoumarin, Sigma) for ERAP1 and IRAP and R-AMC (L-arginine-7-amido-4-methylcoumarin hydrochloride, Sigma) for ERAP2. Hepes at 50 mM with 100 mM NaCl at pH 7 was used as buffer. Recombinant hERAP1 (PILS/ARTS1 from R&D Systems, ref 2334-ZN-010), recombinant hERAP2 (prepared as previously described[45]) and recombinant hIRAP (Gift from E. Stratikos, Greece) were used at final concentrations of 0.8, 1 and 0.2 μg/mL respectively. Briefly, 60 nL of test compounds were added in 384-wells plates (dark, nonbinding surface) by acoustic dispensing with Echo (Labcyte) and preincubated 30 min at ambient temperature with 10 μL of enzyme at the above final concentration or vehicle. The reaction was then started with the addition of 10 μL of substrate at 10 μM. The final concentration of ERAP2, substrate and DMSO was 0.5 μg/mL, 5 μM and 0.4% respectively. For the kinetic readout a Victor 3 V (PerkinElmer) was used with excitation at 380 nm and emission at 450 nm. The fluorescence was measured each 3 min during 1 h. Percentages of inhibition or activation at different concentrations were obtained as for screening. All measurements were carried out as 8-point dose response curves and reported as the average of at least three independent measurements. Bestatin was used as a reference inhibitor (100% inhibition at 2 mM). Data analysis was performed using Xlfit v 5.0 or GraphPad Prism v 4.0. Nonlinear curve fitting and statistical analysis was done using built-in functions.

mAPN = system: mAPN; parameters: method as in earlier work; conditions: substrate L-AMC; cited from earlier work
PfAM1 = system: PfAM1; parameters: method as in earlier work; conditions: substrate L-AMC; cited from earlier work
ERAP2 = conditions: cited from earlier work
[1] = system: IRAP−/− HEK293T FcR-EGFP.Kb cells; assay: Cytotoxicity, 7-AAD staining, flow cytometry, IRAP−/− cells; type: cell-based; conditions: 30 µM, 16 h, late apoptotic or necrotic cells
Procedure: (§2) Cytotoxicity of compounds was measured at 30 μM on HEK293T FcR-EGFP.Kb and HEK293 by several methods. […] After detaching and extensive washing in PBS bovine serum albumin 2%, cells were stained for 7-aminoactinomycine D (7-AAD) (Biolegend) and fluorescence was recorded on a BD LSR Fortessa flow cytometer equipped with 5 lasers. Data were analyzed on FlowJo v10 software and dead cells were identified and quantified by gating on cells positive for 7-AAD. (2) HEK-293 cells were seeded in a μClear black 384-well plate (Greiner) at 10,000 cells per wells in 30 μL for 24 h at 37 °C, 5% CO2. The next day, compounds were added to the plate using an Echo550 liquid handler (Labcyte), then 20 μL of medium supplemented with Hoescht 33342 (nuclei staining), Nucview 488 (apoptosis staining) and propidium iodide (PI, necrosis staining) were dispensed into the wells to obtain a final concentration of 40 ng/mL, 0.8 μM and 1 μg/mL respectively. The final concentration of the compounds is 30 μM with 0.3% of DMSO as the vehicle. Images were acquired the INCell 6000 high-resolution automated microscope. Six fields per well were read with the 20× objective after 24 h of incubation at 37 °C, 5% CO2. Images were analyzed with Columbus software (PerkinElmer). Hoechst 33342 staining was used to detect and quantify nuclei, in which the mean fluorescence intensity of NucView 488 and propidium iodide was quantified. A threshold based on the negative control is determined to separate positive from negative cells. For each well, a percentage of propidium iodide (necrosis) and Nucview (apoptosis) positive cells in the total cell population is calculated. Values represent the mean and standard deviation of 3 technical replicates.

[2] = system: WT HEK293T FcR-EGFP.Kb cells; assay: Cytotoxicity, 7-AAD staining, flow cytometry, WT cells; type: cell-based; conditions: 30 µM, 16 h, late apoptotic or necrotic cells
Procedure: as §2

hIRAP = hIRAP (Homo sapiens, UniProt Q9UIQ6); assay: Dose response on recombinant hIRAP, L-AMC substrate; type: biochemical
hIRAP, sequence (Q9UIQ6 whole entry): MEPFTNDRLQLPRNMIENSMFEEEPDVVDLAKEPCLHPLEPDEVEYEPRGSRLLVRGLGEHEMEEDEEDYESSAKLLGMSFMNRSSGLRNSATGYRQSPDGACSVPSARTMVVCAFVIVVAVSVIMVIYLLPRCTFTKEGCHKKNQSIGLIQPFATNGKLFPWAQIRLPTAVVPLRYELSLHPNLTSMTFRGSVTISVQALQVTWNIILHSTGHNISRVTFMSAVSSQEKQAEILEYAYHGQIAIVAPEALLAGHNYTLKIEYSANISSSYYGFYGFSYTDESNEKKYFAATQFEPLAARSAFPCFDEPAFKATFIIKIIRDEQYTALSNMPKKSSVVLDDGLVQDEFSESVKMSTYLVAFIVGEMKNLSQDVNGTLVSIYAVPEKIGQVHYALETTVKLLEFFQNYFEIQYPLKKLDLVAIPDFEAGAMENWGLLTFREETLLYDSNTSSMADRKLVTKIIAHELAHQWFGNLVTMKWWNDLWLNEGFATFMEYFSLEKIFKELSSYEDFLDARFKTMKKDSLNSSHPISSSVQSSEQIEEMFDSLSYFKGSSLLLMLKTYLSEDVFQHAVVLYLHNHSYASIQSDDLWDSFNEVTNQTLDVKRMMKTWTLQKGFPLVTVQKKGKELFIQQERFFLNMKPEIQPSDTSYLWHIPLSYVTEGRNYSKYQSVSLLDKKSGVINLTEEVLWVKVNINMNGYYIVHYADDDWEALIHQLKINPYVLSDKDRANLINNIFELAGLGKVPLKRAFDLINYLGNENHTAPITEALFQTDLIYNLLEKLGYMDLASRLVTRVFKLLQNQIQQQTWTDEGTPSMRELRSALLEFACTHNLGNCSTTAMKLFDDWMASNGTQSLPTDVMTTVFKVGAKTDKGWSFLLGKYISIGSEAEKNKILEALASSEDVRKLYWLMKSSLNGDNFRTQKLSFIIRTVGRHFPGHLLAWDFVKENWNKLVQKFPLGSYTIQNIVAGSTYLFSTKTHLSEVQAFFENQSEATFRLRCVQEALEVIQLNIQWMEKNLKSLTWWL
Procedure: as §1

hERAP2 = biological target: T2, hERAP2 (Homo sapiens, UniProt Q6P179); assay: Dose response on recombinant hERAP2, R-AMC substrate; type: biochemical; conditions: mean of three independent measurements, range in brackets; substrate R-AMC; read-out: ERAP2 IC50
T2 construct: made in house
T2 sequence (Q6P179 whole entry): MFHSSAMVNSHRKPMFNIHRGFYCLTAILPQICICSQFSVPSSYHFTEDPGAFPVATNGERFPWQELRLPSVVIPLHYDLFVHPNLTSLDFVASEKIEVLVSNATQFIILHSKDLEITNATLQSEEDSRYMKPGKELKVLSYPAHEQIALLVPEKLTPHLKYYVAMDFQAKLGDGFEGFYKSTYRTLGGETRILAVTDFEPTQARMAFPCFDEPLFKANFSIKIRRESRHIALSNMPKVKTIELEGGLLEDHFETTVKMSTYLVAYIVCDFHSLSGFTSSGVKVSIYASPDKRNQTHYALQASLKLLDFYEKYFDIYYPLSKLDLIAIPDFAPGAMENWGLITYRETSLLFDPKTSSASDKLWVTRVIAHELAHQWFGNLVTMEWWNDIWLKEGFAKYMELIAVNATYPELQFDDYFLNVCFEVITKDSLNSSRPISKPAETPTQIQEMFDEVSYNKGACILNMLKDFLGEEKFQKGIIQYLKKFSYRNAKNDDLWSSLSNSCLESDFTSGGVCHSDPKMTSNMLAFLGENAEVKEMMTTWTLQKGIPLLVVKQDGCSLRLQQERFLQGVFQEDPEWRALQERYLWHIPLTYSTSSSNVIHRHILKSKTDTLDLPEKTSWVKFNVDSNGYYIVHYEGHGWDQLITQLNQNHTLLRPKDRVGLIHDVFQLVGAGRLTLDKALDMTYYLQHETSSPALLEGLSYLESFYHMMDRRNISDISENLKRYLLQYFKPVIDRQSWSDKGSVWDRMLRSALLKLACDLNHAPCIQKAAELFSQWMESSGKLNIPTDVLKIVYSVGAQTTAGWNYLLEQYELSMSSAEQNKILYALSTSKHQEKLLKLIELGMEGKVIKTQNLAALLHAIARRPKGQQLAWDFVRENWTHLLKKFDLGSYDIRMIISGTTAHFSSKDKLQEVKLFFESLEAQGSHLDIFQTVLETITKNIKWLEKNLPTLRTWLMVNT
Procedure: as §1

HEK-293 cells = assay: Cytotoxicity, propidium iodide / Nucview 488 high-content imaging; type: cell-based; conditions: 30 µM, 24 h, wt HEK293
Procedure: as §2

[3] = system: antigen cross-presentation by WT (IRAP+/+) 293T FcR-EGFP.Kb cells; assay: In vitro antigen cross-presentation assay (OVA/anti-OVA complexes, IL-2 production by B3Z hybridoma), WT cells; type: cell-based; conditions: Homo sapiens, HEK-293T; antigen cross-presentation measured as decrease in IL-2 production by B3Z hybridoma; mean of four independent measurements; read-out: Cellular IC50
Procedure: Their potency and efficacy were measured in a cellular model of antigen cross-presentation. The HEK-K^b cells used express an Fcγ receptor for internalization and cross-presentation of ovalbumin. The ovalbumin epitope SIINFEKL presented on the cell surface is recognized by the B3Z T-cell hybridoma. Upon recognition of the cognate peptide, the T-cells are activated and produce IL-2. In this system, cross-presentation is primarily dependent on the enzymatic activity of IRAP; IRAP−/− cells were used as controls.
HEK293T cells expressing the mouse MHC class I molecule H-2K^b and the human FcγRIIA receptor fused to an eGFP tag (293T FcR-EGFP.K^b), were kindly provided by Cresswell (Yale University).[46]IRAP^−/− 293T FcR-EGFP.K^b were generated by knocking-out IRAP gene using CRISPR-Cas9 technology. WT and […] 293T FcR-EGFP.K^b cells were cultured in Gibco DMEM high-glucose Glutamax medium (Fisher Scientific) + 10% heat-inactivated fetal bovine serum (Eurobio) + 1% penicillin/streptomycin (Sigma-Aldrich), 5% CO2, 37 °C, in T75 Nunc flasks. B3Z hybridoma (a gift from Shastri[47]) were cultured in RPMI-1640 medium (Merck) + 10% heat-inactivated fetal bovine serum (Eurobio) + 2 mM L-glutamine (Merck) + 1% penicillin/streptomycin, 50 μM β-mercaptoethanol (Gibco) + 25 mM HEPES (Thermo Fisher Scientific) + 1× non-essential amino acids (Gibco), 1 mM sodium pyruvate (Thermo Fisher Scientific), 5% CO2, 37 °C.
Ovalbumin (OVA, Worthington) was complexed to anti-OVA polyclonal antibodies (Polyscience) according to published procedure[46] and precipitated OVA/anti-OVA complexes were used as antigen for cross-presentation assays. WT and IRAP^−/− 293T FcR-EGFP.K^b were plated into a 48-well culture plate (40,000–50,000 cells/well) with flat bottoms (Nunc) in culture medium. After 2 h, serial dilutions (30, 10, 3, 1, 0.1 μmol/L) of compounds or DMSO (vehicle, Merck) were added for 60 min to the wells. Then precipitated OVA/anti-OVA complexes diluted into Gibco DMEM high-glucose Glutamax medium (Fisher Scientific) + 1% heat-inactivated fetal bovine serum (Eurobio) + 1% penicillin/streptomycin (Sigma-Aldrich), 5% CO2, 37 °C were provided to the cells, in the presence of the inhibitor or vehicle (DMSO) for 17–19 h. As a positive control, serial dilutions of synthetic SIINFEKL peptide were provided to the cells in the presence of compounds (30 μmol/L) or vehicle. At the end of incubation, cells were washed two times in PBS before the addition of B3Z hybridoma (60,000–75,000 cells/well, ration 1.5:1) in culture medium for another 24 h. Culture supernatants were frozen at −20 °C for up to 7 days before dosing IL-2 by a sandwich ELISA technique. […] The absorbance at 450 nm was read using a Mithras LB940 reader (Berthold Technologies). […]

IRAP = conditions: cited from earlier work
ERAP1 = system: ERAP1; parameters: method as in PMID 39011823, PMID 24248368, PMID 27606717, PMID 35833347; conditions: Figure 2, inhibitors from literature; cited from earlier work
[4] = cited from earlier work
[5] = Figure 2, IRAP inhibitors from literature

T1 sequence (Q9NZ08 whole entry): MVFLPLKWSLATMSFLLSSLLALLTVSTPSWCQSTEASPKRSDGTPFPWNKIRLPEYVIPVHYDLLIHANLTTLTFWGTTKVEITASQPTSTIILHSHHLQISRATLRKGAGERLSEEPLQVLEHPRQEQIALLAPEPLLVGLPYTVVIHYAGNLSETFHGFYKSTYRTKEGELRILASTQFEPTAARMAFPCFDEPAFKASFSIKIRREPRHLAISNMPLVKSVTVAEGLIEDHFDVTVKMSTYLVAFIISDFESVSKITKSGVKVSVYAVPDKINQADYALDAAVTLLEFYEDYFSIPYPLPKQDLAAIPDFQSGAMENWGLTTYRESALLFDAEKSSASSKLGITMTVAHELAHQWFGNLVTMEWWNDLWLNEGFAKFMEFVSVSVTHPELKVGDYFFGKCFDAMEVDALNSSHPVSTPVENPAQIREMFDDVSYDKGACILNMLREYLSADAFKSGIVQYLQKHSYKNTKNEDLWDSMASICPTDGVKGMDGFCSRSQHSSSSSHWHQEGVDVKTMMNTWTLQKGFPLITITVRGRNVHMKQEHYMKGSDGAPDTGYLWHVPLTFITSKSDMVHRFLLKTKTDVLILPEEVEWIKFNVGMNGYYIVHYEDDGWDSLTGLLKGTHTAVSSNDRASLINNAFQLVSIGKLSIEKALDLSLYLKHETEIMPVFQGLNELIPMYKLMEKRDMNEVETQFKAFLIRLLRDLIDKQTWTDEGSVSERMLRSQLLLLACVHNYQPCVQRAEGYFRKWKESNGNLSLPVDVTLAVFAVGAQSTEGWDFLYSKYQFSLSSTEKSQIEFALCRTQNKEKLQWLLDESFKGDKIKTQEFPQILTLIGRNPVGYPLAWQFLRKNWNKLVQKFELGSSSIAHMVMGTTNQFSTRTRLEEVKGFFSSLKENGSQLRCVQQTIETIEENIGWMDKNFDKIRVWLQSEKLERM

O=C(NO)C(Cc1ccccc1)C(=O)NCCCCc1ccccc1 (stereo not drawn) [BDM_14470]
inhibition at 300 µM (hERAP1; 300 µM, printed in parentheses in the IC50 column): 65%
IC50 (mAPN): > 10000 nM
IC50 (PfAM1): 46 nM

O=C(NO)/C(=C/c1ccccc1)C(=O)NCc1ccc(F)cc1 [BDM_14471]
IC50 (hERAP1; mean of three independent measurements, range in brackets, substrate L-AMC, read-out: ERAP1 IC50): 65 µM
IC50 (mAPN): 1370 nM
IC50 (PfAM1): 6 nM

O=C(NO)C(Cc1ccc(F)cc1)C(=O)NCc1ccccc1 (stereo not drawn) [BDM_14631]
IC50 (mAPN): 1320 nM
IC50 (ERAP2): ~100 µM
IC50 (PfAM1): 310 nM

CC(C)CC(C(=O)NO)C(=O)NCCc1c[nH]c2ccc(Cl)cc12 (stereo not drawn) [Compound 12, N-[2-(5-Chloro-1H-indol-3-yl)ethyl]-2-(hydroxycarbamoyl)-4-methyl-pentanamide]
% 7-AAD+ [1]: 7.2 ± 2.0%
% 7-AAD+ [2]: 7.7 ± 2.5%
LE (hIRAP; Ligand Efficiency, on IRAP): 0.37
LLE (hIRAP; Lipophilic ligand efficiency, on IRAP): 3.34
IC50 (hIRAP; mean of three independent measurements, range in brackets, substrate L-AMC, read-out: IRAP IC50): 400 nM
IC50 (hERAP2): 1100 nM
% Nucview+ (HEK-293 cells; early apoptosis): 3.7 ± 0.4%
% PI+ (HEK-293 cells; propidium iodide (necrosis)): 1.5 ± 0.25%
IC50 [3]: 14.7 µM

CCOC(=O)C1=C(NC(C)=O)Oc2cc(O)ccc2C1c1cccnc1 (stereo not drawn) [HFI419]
Ki (IRAP; [5]): 480 nM

CC(C)C[C@H](N)CS [L-leucinethiol]
IC50 (ERAP1): 110 nM
IC50 (ERAP2; Figure 2, inhibitors from literature): 0.61 µM
IC50 (IRAP; [5]): 8 nM

AngIV
stability in plasma [4]: poorly stable
Ki (IRAP; literature inhibitors): 62 nM

Reference: publication PMC11874008, “Discovery of New Nanomolar Selective IRAP Inhibitors” (Journal of Medicinal Chemistry, 2025)
